This is an account of results in publication PMC9063844, “Synergic action of an inserted carbohydrate-binding module in a glycoside hydrolase family 5 endoglucanase” (Acta Crystallographica. Section D, Structural Biology, 2022).

In assay [1] the target is T1, ΔCBM (Meiothermus taiwanensis, UniProt A0A399DY85, DEL251-380).
T1 construct: gene celH; CBM-deleted MtGlu5, residues 1-235 joined to 366-455 (catalytic domain only); pET-21, C-terminal His6; E. coli BL21(DE3)
Put plainly: X-ray crystal structure (crystal soaked with […] cellobiose). In kind it is binding. The following applies: 1.53 Å; between Trp43 and Trp224.

The target of assay [2] is T2, MtGlu5 (Meiothermus taiwanensis, UniProt A0A399DY85).
T2 construct: gene celH; residues 15-470, signal peptide removed, catalytic domain with inserted CBM29-like domain (236-365); pET-21, C-terminal His6; E. coli BL21(DE3)
Put plainly: hydrolysis, specific activity (reducing sugar, DNS). It counts as biochemical. The following applies: optimum pH 5.0, 60 °C.

For assay [3], the target named is T1, ΔCBM. The assay is described as follows: turnover in the soaked crystal (glucose found instead of cellopentaose). In kind it is binding. The settings on record: crystal soak, 10 mM cellopentaose.
Assay [4] has as its target T1, ΔCBM. The assay is described as follows: X-ray crystal structure (crystal soaked with cellopentaose). The following applies: 1.53 Å; between Trp43 and Trp224; glucose from cellopentaose cleavage. It counts as binding.
Assay [5] deals with T2, MtGlu5. Put plainly: X-ray crystal structure (co-crystallised with CMC). It counts as binding. The following applies: 2.99 Å; glucose from CMC hydrolysis, stacked between Trp43 and Trp224 in the catalytic pocket (-2 or -3 subsite).

T1 sequence (A0A399DY85 entry or part of it DEL251-380): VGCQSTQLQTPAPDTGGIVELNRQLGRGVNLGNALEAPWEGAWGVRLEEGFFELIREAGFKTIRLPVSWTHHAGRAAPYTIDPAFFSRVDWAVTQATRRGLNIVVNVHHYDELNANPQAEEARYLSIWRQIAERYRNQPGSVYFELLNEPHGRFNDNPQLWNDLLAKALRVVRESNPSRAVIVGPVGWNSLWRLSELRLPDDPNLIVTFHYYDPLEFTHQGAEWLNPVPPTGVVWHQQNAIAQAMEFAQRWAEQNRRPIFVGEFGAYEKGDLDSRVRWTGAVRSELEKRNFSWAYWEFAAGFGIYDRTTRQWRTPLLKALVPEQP
T2 sequence (A0A399DY85 entry or part of it): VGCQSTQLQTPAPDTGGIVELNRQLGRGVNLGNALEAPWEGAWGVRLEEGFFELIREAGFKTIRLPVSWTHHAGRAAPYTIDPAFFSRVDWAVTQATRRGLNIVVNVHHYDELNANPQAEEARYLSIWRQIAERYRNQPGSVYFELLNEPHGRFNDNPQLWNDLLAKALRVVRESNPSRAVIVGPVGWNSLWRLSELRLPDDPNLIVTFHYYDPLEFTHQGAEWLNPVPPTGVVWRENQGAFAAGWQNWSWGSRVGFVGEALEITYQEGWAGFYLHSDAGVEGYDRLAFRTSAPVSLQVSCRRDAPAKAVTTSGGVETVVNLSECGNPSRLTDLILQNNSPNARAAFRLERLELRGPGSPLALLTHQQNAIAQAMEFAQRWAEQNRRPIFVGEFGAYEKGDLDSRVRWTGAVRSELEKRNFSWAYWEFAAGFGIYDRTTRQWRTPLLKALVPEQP

With `OC[C@H]1O[C@@H](O[C@H]2[C@H](O)[C@@H](O)C(O)O[C@@H]2CO)[C@H](O)[C@@H](O)[C@@H]1O` (some centres unmarked) [cellobiose], the “X-ray crystal structure (crystal soaked with 10 mM cellobiose)” value in assay [1] was “ΔCBM crystals in complex with glucose and cellobiose were obtained by soaking with cellopentaose and cellobiose”.

As to `OC[C@H]1O[C@@H](O[C@H]2[C@H](O)[C@@H](O)[C@H](O[C@H]3[C@H](O)[C@@H](O)[C@H](O[C@H]4[C@H](O)[C@@H](O)[C@H](O[C@H]5[C@H](O)[C@@H](O)C(O)O[C@@H]5CO)O[C@@H]4CO)O[C@@H]3CO)O[C@@H]2CO)[C@H](O)[C@@H](O)[C@@H]1O` (some centres unmarked) [cellopentaose], the “hydrolysis, specific activity (reducing sugar, DNS)” value in assay [2] is “specific activities of MtGlu5 towards CMC, β-glucan (barley) and cellopentaose”. In assay [3], the “turnover in the soaked crystal (glucose found instead of cellopentaose)” value is “presence of bound glucose rather than cellopentaose in the former crystal”.

For the compound `OC[C@H]1OC(O)[C@H](O)[C@@H](O)[C@@H]1O` (some centres unmarked) [glucose], the “X-ray crystal structure (crystal soaked with cellopentaose)” value in assay [4] is “ΔCBM crystals in complex with glucose and cellobiose were obtained by soaking with cellopentaose and cellobiose”. Further, the “X-ray crystal structure (co-crystallised with CMC)” value in assay [5] is on record as “Bound glucose was observed in the MtGlu5 crystal”.
